Test results as given in patent publication US10981906B2, “Substituted pyrrolopyridine JAK inhibitors and methods of making and using the same” (ACLARIS THERAPEUTICS, INC., priority 2017, dated 2021).

Columns and labels:
JAK1 = JAK1 (Homo sapiens (Human), UniProt P23458); test: JAK1 enzyme activity assay (Thermo Fisher SelectScreen Z-lyte); assay type: biochemical; conditions: 1 hour kinase reaction, read-out: JAK1 Inhibition IC50
Method in brief: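 Z-lyte FRET assay with 21.2-91.5 ng JAK1 and 2 μM Tyr 06 peptide in 50 mM HEPES pH 7.0 with 10 mM MgCl2, reacted 1 hour before development reagent. Compounds tested in an 11-point dose-response from […] to 0.34 nM. IC50 from 4-parameter logistic fit of emission ratio.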

JAK3 (a.a. 781-1124) = JAK3 (a.a. 781-1124) (Homo sapiens (Human), UniProt P52333); test: JAK3 enzyme activity assay (SRCtide phosphorylation, Caliper); assay type: biochemical; conditions: 2.5 nM JAK3, 1 μM SRCtide, 1 uM ATP, 40 minutes; read-out: JAK3 Inhibition IC50
Sequence of JAK3 (a.a. 781-1124) (P52333 781-1124): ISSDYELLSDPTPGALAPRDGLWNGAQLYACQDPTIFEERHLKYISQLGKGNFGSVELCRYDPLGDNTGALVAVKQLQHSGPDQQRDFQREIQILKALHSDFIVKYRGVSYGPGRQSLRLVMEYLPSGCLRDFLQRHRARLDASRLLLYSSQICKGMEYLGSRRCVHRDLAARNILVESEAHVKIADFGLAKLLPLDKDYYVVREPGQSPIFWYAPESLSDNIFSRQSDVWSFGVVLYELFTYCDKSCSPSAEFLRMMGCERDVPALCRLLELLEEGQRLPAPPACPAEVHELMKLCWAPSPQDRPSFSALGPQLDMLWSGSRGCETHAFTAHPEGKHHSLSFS
Method in brief: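 2.5 nM JAK3 kinase domain with 1 μM FAM-SRCtide and 1 μM ATP in 20 mM HEPES pH 7.5, 10 mM MgCl2, 2% DMSO, 40 min at room temperature, EDTA stop. Phospho/unphospho peptide separated by mobility shift; 11-point 3-fold series in duplicate, 4-parameter logistic IC50.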

[1] = test system: IL-2 stimulated STAT5 phosphorylation on Tyr694 (JAK1/3); test: JAK1/3 cellular target modulation: IL-2 stimulated phospho-STAT5 in PBMC; assay type: cell-based; conditions: Homo sapiens, PBMC, IL-2 25 ng/ml, 1 hour compound preincubation, read-out: IL2-STAT5 Inhibition IC50
Method in brief: (§1)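 Thawed human PBMC (200,000/well) in complete RPMI/10% FBS preincubated with compound 1 h at 37 °C, then stimulated with IL-2 25 ng/ml for 5 min (pSTAT5 Tyr694) or IFNγ 10 ng/ml for 10 min (pSTAT1 Tyr701). Cells lysed; pSTAT5 by MSD Tyr694/total STAT5a,b assay, pSTAT1 by sandwich ELISA.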

[2] = test system: IFNγ stimulated STAT1 phosphorylation on Tyr701 (JAK1/2); test: JAK1/2 cellular target modulation: IFNγ stimulated phospho-STAT1 in PBMC; assay type: cell-based; conditions: Homo sapiens, PBMC, IFNγ 10 ng/ml, 1 hour compound preincubation, read-out: Infγ-STAT1 IC50
Method in brief: as §1

Sequence of JAK1 (P23458 whole entry): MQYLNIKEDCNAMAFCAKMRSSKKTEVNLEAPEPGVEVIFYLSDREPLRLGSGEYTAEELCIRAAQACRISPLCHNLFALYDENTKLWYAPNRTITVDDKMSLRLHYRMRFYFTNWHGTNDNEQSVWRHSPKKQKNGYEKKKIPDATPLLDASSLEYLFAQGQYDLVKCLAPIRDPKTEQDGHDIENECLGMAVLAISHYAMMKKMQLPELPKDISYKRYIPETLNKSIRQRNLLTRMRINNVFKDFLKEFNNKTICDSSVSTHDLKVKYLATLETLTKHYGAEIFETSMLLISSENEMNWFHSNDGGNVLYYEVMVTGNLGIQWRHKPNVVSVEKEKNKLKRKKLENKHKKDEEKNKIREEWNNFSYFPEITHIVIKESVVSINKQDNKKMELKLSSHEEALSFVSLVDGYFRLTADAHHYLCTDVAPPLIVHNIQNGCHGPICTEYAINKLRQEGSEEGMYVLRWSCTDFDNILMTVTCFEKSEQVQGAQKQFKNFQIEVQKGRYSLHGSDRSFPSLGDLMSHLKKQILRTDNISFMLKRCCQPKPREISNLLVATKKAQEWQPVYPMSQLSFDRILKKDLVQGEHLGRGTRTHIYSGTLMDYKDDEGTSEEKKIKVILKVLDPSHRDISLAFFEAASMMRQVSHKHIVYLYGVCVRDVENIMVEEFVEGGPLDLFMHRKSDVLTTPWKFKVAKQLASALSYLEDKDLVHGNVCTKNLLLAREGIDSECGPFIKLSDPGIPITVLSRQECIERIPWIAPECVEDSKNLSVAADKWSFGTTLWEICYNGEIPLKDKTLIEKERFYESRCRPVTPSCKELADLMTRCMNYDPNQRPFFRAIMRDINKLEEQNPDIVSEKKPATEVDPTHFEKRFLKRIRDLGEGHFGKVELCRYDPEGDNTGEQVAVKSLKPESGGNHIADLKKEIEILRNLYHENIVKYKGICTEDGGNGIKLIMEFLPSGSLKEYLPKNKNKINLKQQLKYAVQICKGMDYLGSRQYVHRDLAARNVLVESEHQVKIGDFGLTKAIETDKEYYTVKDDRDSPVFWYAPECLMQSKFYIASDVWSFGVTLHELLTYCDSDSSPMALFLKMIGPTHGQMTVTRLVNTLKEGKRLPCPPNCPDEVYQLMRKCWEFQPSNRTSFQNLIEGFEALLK

SMILES | IC50 (JAK1) [nM] | IC50 (JAK3 (a.a. 781-1124)) [nM] | IC50 [1] [nM] | IC50 [2] [nM]
CCOC(=O)c1cnc2[nH]ccc2c1N[C@@H]1CCCN(C(=O)C(C)C#N)C1 (stereo partly drawn) [Example 129, ethyl 4-(((3R)-1-(2-cyanopropanoyl)piperidin-3-yl)amino)-1H-pyrrolo[2,3-b]pyridine-5-carboxylate] | ≤ 10 | ≤ 10 | ≤ 100 | 100 to 1000
CCOC(=O)c1cnc2[nH]ccc2c1N[C@H]1CN(CCC#N)CC[C@H]1C [Example 24, ethyl 4-(((3R,4R)-1-(2-cyanoethyl)-4-methylpiperidin-3-yl)amino)-1H-pyrrolo[2,3-b]pyridine-5-carboxylate] | ≤ 10 | ≤ 10 | ≤ 100 | 100 to 1000
CCCOC(=O)c1cnc2[nH]ccc2c1N[C@H]1CCC[C@@H](CCC#N)C1 (racemic) [Example 139, (rac) (cis) propyl 4-((3-(2-cyanoethyl)cyclohexyl)amino)-1H-pyrrolo[2,3-b]pyridine-5-carboxylate] | ≤ 10 | ≤ 10 | 100 to 1000 | > 1000
COCCOC(=O)c1cnc2[nH]ccc2c1N[C@H]1CN(C(=O)CC#N)CC[C@H]1C [Example 21, 2-methoxyethyl 4-(((3R,4R)-1-(2-cyanoacetyl)-4-methylpiperidin-3-yl)amino)-1H-pyrrolo[2,3-b]pyridine-5-carboxylate] | 10 to 100 | ≤ 10 | 100 to 1000 | > 1000
CCOC(=O)c1cnc2[nH]ccc2c1N[C@@H]1CCCN(C(=O)CC#N)C1 [Example 117, ethyl (R)-4-((1-(2-cyanoacetyl)piperidin-3-yl)amino)-1H-pyrrolo[2,3-b]pyridine-5-carboxylate] | ≤ 10 | ≤ 10 | ≤ 100 | ≤ 100
CCOC(=O)c1cnc2[nH]ccc2c1N[C@H]1CCC[C@H](CCC#N)C1 (racemic) [Example 134, (rac)-(trans)-Ethyl 4-((3-(2-cyanoethyl)cyclohexyl)amino)-1H-pyrrolo[2,3-b]pyridine-5-carboxylate] | ≤ 10 | ≤ 10 | ≤ 100 | 100 to 1000
CCOC(=O)c1cnc2[nH]ccc2c1N[C@@H]1CCCN(CCC#N)C1 [Example 123, ethyl (R)-4-((1-(2-cyanoethyl)piperidin-3-yl)amino)-1H-pyrrolo[2,3-b]pyridine-5-carboxylate] | ≤ 10 | ≤ 10 | ≤ 100 | 100 to 1000
COCCOC(=O)c1cnc2[nH]ccc2c1N[C@@H]1CCCN(C(=O)CC#N)C1 [Example 131, 2-methoxyethyl (R)-4-((1-(2-cyanoacetyl)piperidin-3-yl)amino)-1H-pyrrolo[2,3-b]pyridine-5-carboxylate] | 10 to 100 | 10 to 100 | 100 to 1000 | 100 to 1000
CCOC(=O)c1cnc2[nH]ccc2c1N[C@@H]1CC[C@@H](O)C1 (single isomer, unassigned) [Example 72, (trans)-ethyl 4-((3-hydroxycyclopentyl)amino)-1H-pyrrolo [2,3-b]pyridine-5-carboxylate] | 10 to 100 | 10 to 100 | 100 to 1000 | > 1000
